Measurements from patent US20110189310A1, “SMALL MOLECULE MODULATORS OF PRONGF UPTAKE” (priority 2008, published 2011).
Like-named read-outs stand apart in the source and are kept apart here.

What was measured:
[1] = human, in vivo, cited from earlier work
[2] = monkey, in vivo; cited from earlier work
Cultured rat SCG neurons = conditions: for effect on proNGF induced neuronal apoptosis (FIG. 1): 10 μM compound, 5 ng/ml proNGF, rat SCG neurons 7 DIV
Procedure: (§1) (A) Neuronal apoptosis was assessed morphologically by DAPI and TuJ1 double staining and (B) quantitated as percentage of SCG neuron apoptosis. […] Error bars represent S.E.M.
as §1, with “A recent collaborative study assessed the expression and biological actions of proNGF following seizure induced injury to central neurons. […] (A)” for “(A)”

[3] = mouse, in vivo; cited from earlier work
[4] = rat, in vivo, sc, 100 mg/kg
[5] = in vivo; cited from earlier work
[6] = cited from earlier work
dopaminergic neurons = conditions: one report; cited from earlier work
[7] = human, in vivo; cited from earlier work

## O=C([O-])[O-].[Li+].[Li+] [Lithium carbonate]
[1]; po
  serum concentration: 0.6 to 0.8 mmol
[1]
  major toxicities: reversible renal impairment and anemia
[2]
  brain concentration relative to serum concentration: approximately half
Cultured rat SCG neurons
  concentration at which efficacy is demonstrated: 10 µM
[3]
  clinical toxicity: no clinical toxicity
[4]
  peak serum concentration: 3 mM
  trough serum concentration: 300 µM
[5]
  brain concentration relative to serum concentration: approximately half

## O=C([O-])CC(O)(CC(=O)[O-])C(=O)[O-].[Li+].[Li+].[Li+] [Lithium Citrate]
Cultured rat SCG neurons
  inhibition of apoptosis, dose dependence: dose dependent inhibition of apoptosis
  effect on proNGF induced neuronal apoptosis (FIG. 1): blockade of proNGF induced neuronal apoptosis
[6]; in vivo
  toxicity profile in human: excellent toxicity profiles in human

## N[C@@H](Cc1ccc(O)c(O)c1)C(=O)O [Levodopa]
Cultured rat SCG neurons
  effect on proNGF induced neuronal apoptosis (FIG. 1): blockade of proNGF induced neuronal apoptosis
Cultured rat SCG neurons; proNGF-induced SCG neuronal cell death
  inhibition of apoptosis, dose dependence: dose dependent inhibition of apoptosis
Dopaminergic neurons
  L-dopa concentrations required for toxicity to dopaminergic neurons: 100 to 500 µM
[7]
  CSF level of major metabolite homovanillic acid: 0.8 to 1 µM
[6]; human
  toxicity profile in human: excellent toxicity profiles in human

## CC[C@H](C)C(=O)O[C@H]1C[C@@H](C)C=C2C=C[C@H](C)[C@H](CC[C@@H]3C[C@@H](O)CC(=O)O3)[C@H]21 [Lovastatin]
Cultured rat SCG neurons
  inhibition of apoptosis, dose dependence: dose dependent inhibition of apoptosis
  toxicity in SCG neuron assay: without toxicity
[6]; in vivo
  toxicity profile in human: excellent toxicity profiles in human
